Measurements reported in US9777297B2 (EASEL BIOTECHNOLOGIES, LLC, priority 2011, dated 2017).

Tested on: engineered E. coli
Assay: n-butyraldehyde toxicity incubation test in sealed tube, colony forming units versus time
Assay type: cell-based
Procedure: In all cases, including the case in which no addition is made, the number of colony forming units tends to a minimum value (e.g., cells no longer viable) after about 24 hours.

Structure (SMILES): CCCC=O [n-butyraldehyde]
- change in colony forming units per μL (1.0 g/L n-butyraldehyde added, a little after 5 hours): net increase
- change in colony forming units per μL (1.2 g/L and above n-butyraldehyde added, at 4.5 hours): net decrease
